The source of these data is patent publication US20100034757A1, “EXTRACT POWDER OF INDIGO PLANT, AND ITS PREPARATION AND USES” (priority 2006, published 2010).

In brackets after ≈: the same amount, converted by molar mass. Where two headings read alike, the source gives them in different places.

For assay [1], the system named is mouse melanoma B16 cells. The assay is described as follows: Influence of extract powder and other skin-whitening ingredients on melanin formation (Test 2 for in vitro skin-whitening effect, Experiment 4). It is filed as cell-based. Also noted: Judgement, 1.25% extract powder of indigo plant: key to the marks not given beside the values. As to conditions: 72 hours. The procedure:
The following experiment was conducted to examine the influence of an extract powder of indigo plant and other ingredients with skin-whitening action on melanin formation. Mouse melanoma B16 cells were cultured for 24 hours, and to the resulting culture was added any one of the test solutions to give a composition ratio (%) of each of […], followed by culturing for 72 hours. The viable cells were counted and packed into a capillary tube for color observation. The judgement of the effects was evaluated based on the same criterion as in Experiment 1. In this experiment system, the effect in the case of culturing the cells with addition of 0.025% of the extract powder of indigo extract was judged to be “+”.

The subject of a further assay is A. actinomycetemcomitans. The experiment in a line: Minimum inhibitory concentration (MIC), Experiment 13. It is filed as cell-based, Actinobacillus actinomycetemcomitans. As to conditions: for MIC: Aggregatibacter actinomycetemcomitans, read-out: Minimum inhibitory concentration (MIC). The procedure: (§1) The following experiment was conducted to examine the influence of an extract powder of indigo plant on microorganisms in human oral cavity. An extract powder of indigo plant, prepared by the method in the later described Example 1, was dissolved in refined water to obtain an aqueous solution with a concentration of 1.5% indigo plant extract, d.s.b. Using the aqueous solution, the minimum inhibitory concentration (may be designated as “MIC”, hereinafter) against microorganisms in human oral cavity (microorganisms as causatives of periodontal diseases and dental caries) was determined. Tryptanthrin, gallic acid, and caffeic acid, which had been confirmed to be contained in the indigo extract, were determined for MIC against microorganisms in human oral cavity, and the data was shown in Table 9 in parallel. The following method was used for assaying MIC.
(§2) The MICs of an extract powder of indigo plant, tryptanthrin, gallic acid, and caffeic acid against microorganisms in human oral cavity were determined according to the standard method of Japanese Society of Chemotherapy (see “Saikin-Shinkin-Kensa (Test for Bacteria and Fungi), 2nd Edition”, pp. 524-529 (1982)). Examples of microorganisms, used as causatives of periodontal diseases, were microorganisms of Prophyromonas gingivalis strains such as JCM8525, JCM12257, and ATCC 33277 strains; those of Actinobacillus actinomycetemcomitans (may be abbreviated as “A. actinomycetemcomitans”) such as JCM2434 and JCM8577 strains; Prevotella intermedia (may be abbreviated as P. intermedia) JCM7365 strain; and Campylobacter rectus (may be abbreviated as C. rectus) JMC6301 strain. Examples of microorganisms, used as causatives of dental caries, were Streptococcus mutans strains such as OMZ-175, OMZ-176, OMZ-65, OMZ-61, B-13D, and Ingbritt strains; and Streptococcus sobrinus (may be abbreviated as “S. sobrinus”) 6715 strain. Among these microorganisms, those which are causatives of periodontal diseases were cultured at 37° C. for 48 hours, while those which are causatives of dental caries were cultured at 37° C. for 18 to 24 hours under anaerobic conditions by using a brain heart infusion (abbreviated as “BHI”, hereinafter), commercialized by Difco Laboratories, Detroit, USA, supplemented with 5 μg/ml of hemin, and 0.5 μg/ml of vitamin K3. The resulting cultures of the microorganisms, as causatives of both periodontal diseases and dental caries, were respectively diluted into solutions with 10^8 cells and 10^6 cells.

For the next assay, the system named is P. gingivalis. The description is as above. Format: cell-based, Prophyromonas gingivalis. As to conditions: for MIC: Porphyromonas gingivalis. As for the experimental part:
as §1, §2

Another assay relates to C. rectus. Described as above. Format: cell-based. As to conditions: Campylobacter rectus, read-out: Minimum inhibitory concentration (MIC). The procedure: as §1, §2
For a further assay, the system named is S. sobrinus. Described as above. It is filed as cell-based. The following applies: Streptococcus sobrinus, read-out: Minimum inhibitory concentration (MIC). As for the experimental part:
as §1, §2

A further assay relates to S. mutans. The description is as above. It is filed as cell-based. As to conditions: Streptococcus mutans. The procedure:
as §1, §2

A further assay concerns P. intermedia. Described as above. It is filed as cell-based. The following applies: Prevotella intermedia, read-out: Minimum inhibitory concentration (MIC). As for the experimental part:
as §1, §2

Assay [2] relates to mouse melanoma B16 cells. The experiment in a line: Influence on melanin formation, blackening of cells (Test 1 for in vitro whitening effect, Experiment 3). It is filed as cell-based. As to conditions: medium containing 2.5 mM; cultured 72 hours. The procedure: Using a dried leaf of Polygonum tinctorium Lour., Japanese knotweed, buckwheat, or knotgrass as a plant of the family Polygonaceae, extract powders of which were prepared. The extract powders of indigo plant were prepared by the method in later described Example 2. According to the same method as in Example 2, using a dried leaf of Japanese knotweed, buckwheat, or knotgrass in place of the one of Polygonum tinctorium Lour., extract powders of the above plants were prepared for use in the following experiment, where, as an extract powder of indigo plant, the one prepared by the method in later described Example 2 was used, unless specified otherwise. […] After counting the number of viable cells, the viable cells were packed into a capillary tube for color observation. […] The degree of blackening of the B16 cells was evaluated based on the following criterion, and the results are in Table 3. Evaluations with Reference to the Blackening Degree of Control Free of Agent: −: Unchanged; ±: Slight inhibition of blackening; +: Positive inhibition of blackening; ++: Clear inhibition of blackening; +++: Complete inhibition of blackening.

[3] abbreviates: ingredient 1.0% in combination with extract powder of indigo plant.
[4] abbreviates: ingredient 0.5% in combination with extract powder of indigo plant.
Where [5] appears, read: strain JMC12257, read-out: Minimum inhibitory concentration (MIC).
[6] abbreviates: strain B-13D, read-out: Minimum inhibitory concentration (MIC).
[7] abbreviates: strain Ingbritt, read-out: Minimum inhibitory concentration (MIC).
Where [8] appears, read: strain OMZ-61, read-out: Minimum inhibitory concentration (MIC).
Where [9] appears, read: strain OMZ-65, read-out: Minimum inhibitory concentration (MIC).
The mark [10] stands for this setting: strain OMZ-175, read-out: Minimum inhibitory concentration (MIC).
The mark [11] stands for this setting: strain OMZ-176, read-out: Minimum inhibitory concentration (MIC).

Turning to `COc1ccc(C(=O)[O-])c(O)c1.[K+]` [4-Methoxysalicylic acid potassium salt], the “Judgement, With no extract powder of indigo plant” value (“Judgement, With no extract powder” below) in the assay on mouse melanoma B16 cells [1] (composition ratio 1.0%) is “+”. For the same compound, the “Judgement, 1.25% extract powder of indigo plant” value (shortened to “Judgement, 1.25% extract powder”) with mouse melanoma B16 cells [1] (setting [3]) is on record as “+++”.
Turning to `CCCCc1ccc(O)cc1O` [4-n-Butylresorcinol], the “Judgement, With no extract powder” value with mouse melanoma B16 cells [1] (composition ratio 0.5%) is listed as “+”. In the assay with mouse melanoma B16 cells [1] (setting [4]), the “Judgement, 1.25% extract powder” value is on record as “+++”.
On to `OC[C@H]1O[C@@H](Oc2ccc(O)cc2)[C@H](O)[C@@H](O)[C@@H]1O` [Arbutin], for which the “Judgement, With no extract powder” value in the assay with mouse melanoma B16 cells [1] (composition ratio 0.5%) is “+”. Also, in the assay with mouse melanoma B16 cells [1] (setting [4]), the “Judgement, 1.25% extract powder” value is “+++”.
For `O=C(O)/C=C/c1ccc(O)c(O)c1` [Caffeic acid], the MIC in the assay on A. actinomycetemcomitans (strain JMC2434) is 400 µg/mL (≈ 2220 µM); in the assay on A. actinomycetemcomitans (strain JMC8577), 200 µg/mL (≈ 1110 µM); with P. gingivalis (setting [5]) it was 400 µg/mL (≈ 2220 µM); in the assay with C. rectus (strain JMC6301) it was 100 µg/mL (≈ 555 µM); with S. sobrinus (strain 6715), 800 µg/mL (≈ 4440 µM); with S. mutans (setting [6]), 200 µg/mL (≈ 1110 µM). Also, the MIC was 1600 µg/mL (≈ 8880 µM) with S. mutans (setting [7]); 400 µg/mL (≈ 2220 µM) in the assay on S. mutans (setting [8]); 200 µg/mL (≈ 1110 µM) in the assay with S. mutans (setting [9]); 400 µg/mL (≈ 2220 µM) in the assay on S. mutans (setting [10]); 800 µg/mL (≈ 4440 µM) in the assay on S. mutans (setting [11]); 400 µg/mL (≈ 2220 µM) in the assay on P. intermedia (strain JMC7365). Further, the “Minimum inhibitory concentration (MIC)” value with P. gingivalis (strain JCM8525) and with P. gingivalis (strain JMC33277) was 400 µg/mL (≈ 2220 µM) each time.
For `O=c1oc2c(O)c(O)cc3c(=O)oc4c(O)c(O)cc1c4c23` [Ellagic acid], the “Judgement, With no extract powder” value in the assay on mouse melanoma B16 cells [1] (composition ratio 0.5%) is “±”. The “Judgement, 1.25% extract powder” value with mouse melanoma B16 cells [1] (setting [4]) is given as “++”.
For the compound `O=C(O)c1cc(O)c(O)c(O)c1` [Gallic acid], the MIC in the assay on A. actinomycetemcomitans (strain JMC2434) came to 800 µg/mL (≈ 4700 µM); in the assay with A. actinomycetemcomitans (strain JMC8577), 800 µg/mL (≈ 4700 µM); in the assay with P. gingivalis (setting [5]) it was 400 µg/mL (≈ 2350 µM); in the assay on C. rectus (strain JMC6301), 400 µg/mL (≈ 2350 µM); in the assay on S. sobrinus (strain 6715) it was 800 µg/mL (≈ 4700 µM); in the assay on S. mutans (setting [6]), 200 µg/mL (≈ 1180 µM). Moreover, the MIC came to 1600 µg/mL (≈ 9410 µM) in the assay with S. mutans (setting [7]); 200 µg/mL (≈ 1180 µM) in the assay on S. mutans (setting [8]); 1600 µg/mL (≈ 9410 µM) with S. mutans (setting [9]); 400 µg/mL (≈ 2350 µM) in the assay on S. mutans (setting [10]); 400 µg/mL (≈ 2350 µM) in the assay with S. mutans (setting [11]); 400 µg/mL (≈ 2350 µM) with P. intermedia (strain JMC7365). For the same compound, the “Minimum inhibitory concentration (MIC)” value in the assay on P. gingivalis (strain JCM8525) and with P. gingivalis (strain JMC33277) was 400 µg/mL (≈ 2350 µM) each time.
Regarding `O=c1cc(CO)occ1O` [Kojic acid], the “Judgement (inhibition of blackening of B16 cells)” value in the assay with mouse melanoma B16 cells [2] is on record as “+”. Further, the “Judgement, With no extract powder” value in the assay with mouse melanoma B16 cells [1] (composition ratio 1.0%) is “+”. In the assay with mouse melanoma B16 cells [1] (setting [3]), the “Judgement, 1.25% extract powder” value was “+++”.
Take `CCCCC/C=C\C/C=C\CCCCCCCC(=O)O` [Linoleic acid]: in the assay with mouse melanoma B16 cells [1] (composition ratio 0.5%), the “Judgement, With no extract powder” value is “±”. The “Judgement, 1.25% extract powder” value with mouse melanoma B16 cells [1] (setting [4]) was “++”.
Consider `O=C1O[C@H]([C@@H](O)CO)C([O-])=C1O.[Na+]` [Sodium L-ascorbate], for which, in the assay on mouse melanoma B16 cells [1] (composition ratio 2.0%), the “Judgement, With no extract powder” value is recorded as “+”. Further, the “Judgement, 1.25% extract powder” value with mouse melanoma B16 cells [1] (ingredient 2.0% in combination with extract powder of indigo plant) is on record as “+++”.
On to `COc1cc(CCC(=O)CC(=O)CCc2ccc(O)c(OC)c2)ccc1O` [Tetrahydrocurcumin], for which, in the assay with mouse melanoma B16 cells [1] (composition ratio 0.5%), the “Judgement, With no extract powder” value is given as “±”. In addition, the “Judgement, 1.25% extract powder” value with mouse melanoma B16 cells [1] (setting [4]) is on record as “++”.
Turning to `NC[C@H]1CC[C@H](C(=O)O)CC1` [Tranexamic acid], the “Judgement, With no extract powder” value in the assay on mouse melanoma B16 cells [1] (composition ratio 1.0%) is reported as “±”. Also, the “Judgement, 1.25% extract powder” value with mouse melanoma B16 cells [1] (setting [3]) is listed as “++”.
`O=C1c2ccccc2-n2c1nc1ccccc1c2=O` [Tryptanthrin]: the MIC came to 25 µg/mL (≈ 101 µM) with A. actinomycetemcomitans; 6.25 µg/mL (≈ 25.2 µM) in the assay on P. gingivalis (read-out: Minimum inhibitory concentration (MIC), strain JMC8525); 12.5 µg/mL (≈ 50.4 µM) in the assay with P. gingivalis (read-out: Minimum inhibitory concentration (MIC), strain JMC12257); 12.5 µg/mL (≈ 50.4 µM) in the assay on P. gingivalis (read-out: Minimum inhibitory concentration (MIC), strain JMC33277); 25 µg/mL (≈ 101 µM) in the assay on C. rectus; 25 µg/mL (≈ 101 µM) with S. sobrinus. Also, the MIC in the assay on S. mutans (read-out: Minimum inhibitory concentration (MIC), strain B-13D) was 6.25 µg/mL (≈ 25.2 µM); in the assay on S. mutans (read-out: Minimum inhibitory concentration (MIC), strain Ingbritt), 25 µg/mL (≈ 101 µM); in the assay on S. mutans (read-out: Minimum inhibitory concentration (MIC), strain OMZ-61), 6.25 µg/mL (≈ 25.2 µM); in the assay with S. mutans (read-out: Minimum inhibitory concentration (MIC), strain OMZ-65) it was 12.5 µg/mL (≈ 50.4 µM); with S. mutans (read-out: Minimum inhibitory concentration (MIC), strain OMZ-175) it was 6.25 µg/mL (≈ 25.2 µM); in the assay on S. mutans (read-out: Minimum inhibitory concentration (MIC), strain OMZ-176), 12.5 µg/mL (≈ 50.4 µM). For the same compound, the MIC in the assay with P. intermedia was determined as 6.25 µg/mL (≈ 25.2 µM). In addition, the “Minimum inhibitory concentration (MIC)” value with A. actinomycetemcomitans (strain JMC2434) is 25 µg/mL (≈ 101 µM).
